From patent US20120196854A1, “PHARMACEUTICAL COMPOSITION COMPRISING AROMATIC HETEROCYCLIC COMPOUND” (Kyowa Hakko Kirin Co., Ltd., priority 2009, published 2012)

Experiments:
[1] = biological target: cyclooxygenase-1 (COX-1) (Homo sapiens, UniProt P23219); experiment: Inhibition of COX-1 enzyme activity; format: biochemical; conditions: at a concentration of 10 μmol/L; read-out: inhibitory rate, COX-1
[2] = biological target: T1, human H-PGDS (Homo sapiens, UniProt O60760); experiment: H-PGDS inhibitory activity (Prostaglandin D Synthase Inhibitor Screening Assay Kit); format: biochemical; conditions: at a concentration of 1 μmol/L; read-out: H-PGDS inhibitory rate
T1 construct: purchased Cayman Chemical 10006593
T1 sequence (O60760 whole entry): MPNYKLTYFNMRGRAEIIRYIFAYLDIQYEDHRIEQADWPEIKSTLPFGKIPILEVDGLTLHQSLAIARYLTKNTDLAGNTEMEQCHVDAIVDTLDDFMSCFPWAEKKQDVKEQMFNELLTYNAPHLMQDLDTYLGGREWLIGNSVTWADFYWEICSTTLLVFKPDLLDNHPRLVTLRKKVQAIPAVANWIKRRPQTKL
Experimental: The H-PGDS inhibitory activity of Compound (I) was calculated according to the following protocol attached to Prostaglandin D Synthase Inhibitor Screening Assay Kit (Cat. No. 10006595, Cayman Chemical, Ann Arbor, Mich., USA).
(§1) First, to a 96-well round-bottom plate (Cat. No. 3882-096, Asahi Techno Glass, Chiba), 60 μL/well of an enzyme assay buffer (0.1 mol/L Tris-HCl, pH 8.0), 10 μL/well of a human H-PGDS [Cat. No. 10006593 (human), Cayman Chemical, Ann Arbor, Mich., USA] at a final concentration of 0.125 μg/mL, 10 μL/well of reduced glutathione at a final concentration of 1 mmol/L, and 10 μL/well of Compound (I) diluted with the enzyme assay buffer were added and lightly mixed. The plate was allowed to stand at room temperature for 10 minutes, and then 10 μL/well of prostaglandin H2(PGH2) (Cat. No. 17020, Cayman Chemical) at a final concentration of 50 μmol/L was added thereto to start enzyme reaction. The reaction was allowed to proceed with mixing by a plate mixer for 1 minute. After the enzyme reaction, 10 μL/well of a 4 mg/mL FeCl2-HCl solution prepared by dissolving FeCl2 in 1 mol/L hydrochloric acid was added to stop the reaction and reduce PGH2 simultaneously. The enzyme reaction solution (100 μL/well) was transferred to a 96-well UV-Star half area plate (Cat. No. 675801, Greiner, Frickenhausen, Germany), and measured for absorbance at 232 nm using a microplate reader Power Wave (BioTek Instrument Inc., Winooski, Vt., USA).
The H-PGDS inhibitory activity (inhibitory rate) of Compound (I) was calculated by the following formula.
The H-PGDS inhibitory activity of Compound 133 was calculated according to the following protocol attached to Prostaglandin D Synthase Inhibitor Screening Assay Kit (Cat. No. 10006595, Cayman Chemical, Ann Arbor, Mich., USA).
as §1, with “133” for “(I)”
The H-PGDS inhibitory activity (inhibitory rate) of Compound 133 was calculated according to the method in Test Example 1.

Sequence of cyclooxygenase-1 (COX-1) (P23219 24-599, species assumed): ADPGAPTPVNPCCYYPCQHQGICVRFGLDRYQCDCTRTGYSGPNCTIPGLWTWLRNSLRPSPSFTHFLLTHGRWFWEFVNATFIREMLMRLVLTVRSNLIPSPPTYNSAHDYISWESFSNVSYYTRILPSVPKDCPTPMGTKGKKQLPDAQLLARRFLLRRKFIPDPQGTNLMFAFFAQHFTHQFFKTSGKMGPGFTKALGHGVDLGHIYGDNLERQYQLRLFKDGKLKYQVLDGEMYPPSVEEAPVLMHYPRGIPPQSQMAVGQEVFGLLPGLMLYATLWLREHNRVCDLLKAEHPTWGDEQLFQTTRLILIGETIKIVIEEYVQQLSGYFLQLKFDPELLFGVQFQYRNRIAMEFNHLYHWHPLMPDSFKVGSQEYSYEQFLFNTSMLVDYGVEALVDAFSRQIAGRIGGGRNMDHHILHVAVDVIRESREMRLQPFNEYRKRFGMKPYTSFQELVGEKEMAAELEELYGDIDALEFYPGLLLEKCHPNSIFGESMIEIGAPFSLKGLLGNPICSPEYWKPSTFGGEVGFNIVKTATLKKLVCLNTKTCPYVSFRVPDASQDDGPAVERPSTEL

O=C(O)c1cc(-c2ccco2)nc2ccc3nn(-c4ccccc4)nc3c12 [Compound 133, 7-(furan-2-yl)-2-phenyl-2H-[1,2,3]triazolo[4,5-f]quinoline-9-carboxylic acid]
inhibition at 10 µM [1]: ≤ 20% | inhibition at 1 µM [2]: 73%
